Data taken from US6841376B2, “Bistable genetic toggle switch” (Cellicon Technologies, Inc., priority 1998, dated 2005).

Experiments:
GFPmut3 expression [1] = test: Demonstration of bistability of toggle and control plasmids; type: cell-based, E. coli strain JM2.300; settings: for GFP EXPRESSION (bistable or monostable behaviour): Toggles, Type IV plasmids; for bistability: Type IV toggle plasmids with RBS1 sequences of varying efficiency
From the text: In order to test the limits of bistability of the toggle switch, the al parameter was varied experimentally by inserting RBS1 sequences of varying efficiency into pTAK (Class 1) and pIKE (Class 2) toggle switches of Type IV. Four pTAK series plasmids (Class 1) were constructed with RBS1 sequences D,F,G and H, and two pIKE series plasmids (Class 2) were constructed with RBS1 sequences A and C (Table 6).
The existence of bistability is illustrated in FIG. 12. In this experiment, the toggle and control plasmids were grown in E. coli strain JM2.300 for 23.5 hours. At 6, 11, 18 and 23.5 hours, samples were taken and cells were pelleted, washed once in LB or PBS, and diluted 500-1000 fold into fresh medium with or without inducers as appropriate. […] Cells were washed and diluted into fresh medium with no IPTG and grown an additional 5 hours. […] Cells were diluted into fresh medium and induced at 42° C. (pTAK plasmids only—FIG. 12A) or grown in the presence of 500 ng/ml aTc (pIKE plasmids only—FIG. 12B). […] Cells were washed and diluted into fresh medium with no inducers or returned to standard temperature.
In this experiment, a single culture of pTAK117 cells (initially in the low state) was divided into two groups and diluted. The first group was grown in medium with no inducers (squares) while the second group was grown in medium plus 2 mM IPTG (circles). After 6 hours, cells were pelleted, washed once in LB and diluted 1000 fold into fresh medium with no inducer. Both groups of cells were grown for an additional 22 hours while taking samples and diluting into fresh medium every 6-8.5 hours.

GFPmut3 expression [2] = test: Switching time of toggle switch; type: cell-based, E. coli strain JM2.300
Description: In this experiment, pTAK117 cells initially in the low state were diluted in fresh medium and induced with 2 mM IPTG. Separate cultures were grown for 35 minutes to 6 hours before pelleting, washing, and diluting the cells 500 fold in fresh medium with no inducer. Growth was continued until 10.25 hours after the start of the experiment and cells were assayed in the flow cytometer. Conversely, pTAK117 cells initially in the high state were diluted in fresh medium with no inducer. Separate cultures were grown at 41±1° C. for 35 minutes to 6 hours before diluting the cells 500 fold in fresh medium with no inducer. Growth was continued at standard temperature until 10.25 hours after the start of the experiment and cells were assayed in the flow cytometer.
The cell population at four time points is illustrated. As evidenced by the appearance of a bimodal distribution at 4 hours (FIG. 15C), the pTAK117 plasmid began switching to the high state between 3 and 4 hours of IPTG induction. By five hours, the switching was nearly complete. By six hours, the switching was complete (FIGS. 15A and 15C). On the other hand, switching from the high state to the low state was completed in 35 minutes or less (FIG. 15B). In this experiment, the primary determinant of switching time appears to be the rate of destruction of the expressed transcribed repressor protein. […]

GFPmut3 expression [3] = test: Toggle switch induction threshold (steady-state gene expression after 17 hour IPTG induction); type: cell-based, E. coli strain JM2.300; settings: 17 hours in 13 different concentrations of IPTG
Description: This was tested experimentally. In this experiment, pTAK117 (initially in the low state) and pTAK102 (as a control) were grown in 13 different concentrations of IPTG for 17 hours, diluting twice (at 6 and 12.5 hours) into fresh medium with the same IPTG concentration. The cells were grown for this length of time in order to ensure that they reached steady-state expression levels. […] Point 1 was taken from separate experiments measuring the high state of pTAK117 with no inducer. Points 3a and 3b are the high and low modes of a bimodally distributed cell population. The bimodality occurred apparently due to natural fluctuations in gene expression and the close proximity of the toggle switch to its bifurcation point. Induction of the pTAK102 control has the familiar sigmoidal shape (triangles). […] This discontinuity is referred to as a saddle-node bifurcation.

OL1-OL3 = settings: λ to OL1-OL3; cited from earlier work
GFP expression = test: Flow-cytometer assay of gene expression and promoter strength (GFP expression by plasmids); type: cell-based, E. coli strain JM2.300; settings: repressor expressed from Ptrc-2-E; 14,300/2.5
Description: The host cell for all promoter assays and toggle switch experiments was E. coli strain JM2.300 [λ-, lacI22, rpsLl35 (StrR), thi-1] (CGSC strain 5002). JM2.300, which contains few mutations and is a fast growing strain that can tolerate enormous overexpression of plasmid-bound genes. Because JM2.300 contains no λ repressor and carries a non-functional Lac repressor (lacI22), it is considered to be a suitable host for the toggle switch.
All cells were grown in LB medium (Difco) with 100 μg/ml ampicillin plus inducers as indicated in the text. All Type I and pIKE series plasmids were grown at 37±1° C., unless otherwise indicated. All pTAK series plasmids were grown at 32±1° C. except during thermal induction. […]
The following expression data was collected using a Becton-Dickinson FACSCalibur flow cytometer with a 488 nm argon excitation laser and a 515-545 nm emission filter. […] Cells were assayed at low flow rate and fluorescence was calibrated using InSpeck Green fluorescent beads (Molecular Probes). […] All flow data were converted to ASCII format using MFI (E. Martz, University of Massachusetts, Amherst, available at http://marlin.bio.umass.edu/mcbfacs/flowcat.html\##mfi) and analyzed with Matlab (Mathworks).
The strengths, in calibrated fluorescence units, of the promoter/RBS pairs used to construct the toggle switches are listed in Table 6. […]

[4] = tested on: hybrid promoter: E. coli LexA operator sequence spliced into the HSV tk promoter; settings: mammalian cells that synthesized the repressor; cited from earlier work

pIKE105: Class 2 Type IV toggle plasmid (SEQ ID NO: 16), PLtetO-1, RBS1 A, lacI and tetR
GFP EXPRESSION (bistable or monostable behaviour) (GFPmut3 expression [1]): Monostable | bistability (GFPmut3 expression [1]): did not exhibit bistability | state after removal of IPTG (GFPmut3 expression [1]; washed, diluted into fresh medium with no IPTG, additional 5 hours): returned to the low state

pIKE107: Class 2 Type IV toggle switch plasmid (SEQ ID NO: 17), PLtetO-1, RBS1 C
GFP EXPRESSION (bistable or monostable behaviour) (GFPmut3 expression [1]): Bistable | bistability (GFPmut3 expression [1]): exhibited bistability

pTAK117: Class 1 Type IV toggle switch plasmid (SEQ ID NO: 12), PLslcon, RBS1 D, lacI and cIts
switching from low to high state complete (GFPmut3 expression [2]; 2 mM IPTG induction): six | switching from the high state to the low state completed (GFPmut3 expression [2]; thermal induction at 41±1° C.): ≤ 35 min | shape of IPTG induction curve (GFPmut3 expression [3]): quasi-discontinuous jump to the high state | IPTG concentration at which toggle exhibits quasi-discontinuous jump to the high expression state (GFPmut3 expression [3]; initially in the low state): 40 µM | long-term stability of the two states (GFPmut3 expression [1]; 6 hours with or without 2 mM IPTG, then 22 hours with no inducer): remained in their initial high or low states for the entire 22 hour period | GFP EXPRESSION (bistable or monostable behaviour) (GFPmut3 expression [1]): Bistable

pTAK130: Class 1 Type IV toggle switch plasmid (SEQ ID NO: 15), PLslcon, RBS1 G
GFP EXPRESSION (bistable or monostable behaviour) (GFPmut3 expression [1]): Bistable

pTAK131: Class 1 Type IV toggle switch plasmid (SEQ ID NO: 13), PLslcon, RBS1 F
GFP EXPRESSION (bistable or monostable behaviour) (GFPmut3 expression [1]): Bistable

pTAK132: Class 1 Type IV toggle switch plasmid (SEQ ID NO: 14), PLslcon, RBS1 H
GFP EXPRESSION (bistable or monostable behaviour) (GFPmut3 expression [1]): Bistable

λ repressor (cI): bacteriophage λ repressor protein that represses the PL promoter
Kd (OL1-OL3): ~1 nM | repression of the PLSlcon-D promoter (GFP expression): ~6000 fold

B1: E. coli LexA repressor protein: E. coli repressor protein that represses transcription at operator site Olex (protein, UniProt P0A7C2 1-202, looked up)
LexA repressor: MKALTARQQEVFDLIRDHISQTGMPPTRAEIAQRLGFRSPNAAEEHLKALARKGVIEIVSGASRGIRLLQEEEEGLPLVGRVAAGEPLLAQQHIEGHYQVDPSLFKPNADFLLRVSGMSMKDIGIMDGDLLAVHKTQDVRNGQVVVARIDDEVTVKRLKKQGNKVELLPENSEFKPIVVDLRQQSFTIEGLAVGVIRNGDWL
reduction of expression from hybrid LexA operator / HSV tk promoter [4]: 10 fold
